Laboratory results published in patent publication US3962321A, “Enhancement of coffee flavor” (General Foods Corporation, priority 1973, dated 1976).
Entries after “also recorded” stand apart in the source; their conditions may differ.

Legend:
[1] = Expert taster flavor and aroma levels (threshold, recognition, fatty flavor) in regular or soluble coffee brew; conditions: about 1 to 1.5% coffee solids brew; for Recognition Level: woody note
Source text: The threshold level is that quantity of flavoring producing a change in cup flavor and aroma, but a change which cannot be described as a particular flavor. The recognition level is the quantity of flavoring which can be defined as imparting a woody note to the brew. The fatty level is that point where the undesirable fatty flavor becomes apparent and detracts from the woody character of the flavoring noted at lower levels.

[2] = Flavor evaluation in water and soluble coffee (Example XVI)
Source text: A ten percent ethanolic solution of trans-2-nonenal (Compagnie Parento, Croton-on-Hudson, New York) was passed through a Perkin-Elmer model 900 gas chromatography unit having a 6-foot by 1/8 inch column packed with 10% diethylene glycol succinate polyester on 80/90 Anakrom ABS.

[3] = Evaluation in various foodstuffs versus control (Example XXV)
Experimental: To various foodstuffs is added minute amounts of the enhancing compounds of this invention at the proportions indicated. The foodstuffs are then evaluated by comparison to a control not containing the enhancer.

[4] = Expert panel flavor evaluation in instant Maxwell House coffee (Example XVII); conditions: two parts per billion; 1.35% coffee solids
Source text: An expert panel flavor evaluation was made of trans-2-nonenal, purified as in Example XVI, at a level of two parts per billion in instant Maxwell House brand soluble coffee at a 1.35% coffee solids concentration.

[5] = Flavor evaluation of retention on freeze drying of coffee extract (Example XX); assay type: physicochemical; conditions: theoretical 2 ppb
Experimental: Trans-2-nonenal (5 mg in one ml of ethanol) is added to 500 ml of distilled water and the aqueous mixture poured into 52 pounds of coffee extract of 28.2% coffee solids. The coffee-nonenal mixture is stirred and then poured into trays and frozen to form 3/8 inch thick slabs. Control slabs are also prepared from the same extract without the addition of flavors.
The slabs are freeze dried in a 50 square foot Stokes Freeze Drier under 150 microns pressure. […] Condenser temperature is maintained at -40°F.
A flavor evaluation is made by dissolving 0.65 gms of trans-2-nonenal aromatized freeze dried coffee and 2.60 gms of freeze dried control in eight bunces of hot water to give a theoretical 2 ppb concentration. Control cups are prepared by dissolving 3.25 gms of freeze dried control coffee in eight ounces of hot water and adding thereto 10 microliters of a 5 ml aqueous solution containing 0.25 mg trans-2-nonenal to give a 2 ppb concentration.

[6] = Taste comparison in spray dried instant Maxwell House coffee containing synthetic winey, buttery flavor (Example XII); conditions: 2 ppb; 1.35% coffee solids brew
Source text: Spray dried instant Maxwell House brand coffee containing a synthetic, winey, buttery flavor was compared to an identical sample containing an additional 2ppb trans-2-nonenal.

[7] = General flavor characterization by flavor experts; conditions: 50 ppm or higher
[8] = Flavor effect in whisky and carbonated and non-carbonated beverages
[9] = Taste comparison in freeze dried Maxim soluble coffee (Example XIII)
[10] = Flavor comparison in 100% Robusta spray dried soluble coffee (Example XXIV); conditions: 2 ppb
[11] = Taste comparison in freeze dried Maxim soluble coffee with steam generated aroma (Example XIV); conditions: 2 ppb
[12] = Taste comparison in instant Maxwell House coffee beverage (Example XI); conditions: for Taste comparison with control: 1.35% coffee solids (Example XIA)
Source text: A. A taste comparison was made of instant Maxwell House brand coffee beverage containing 1.35% coffee solids enhanced with 1 ppb and 2 ppb trans-2-nonenal.
B. Example XIA was repeated employing a broader range of flavor enhancement.

[13] = Flavor comparison in Sanka decaffeinated soluble coffee (Example XVIII); conditions: 2 ppb
[14] = Taste comparison in instant Postum beverage (Example XXVI)
Experimental: A solution of trans-2-nonenal was prepared by dissolving 20 mg of the aldehyde in 50 ml of ethanol. One half of a milliliter of the resulting solution was then dissolved in 50 ml of spring water to yield a 0.2 mg/50 ml solution. The spring water solution was employed to prepare enhanced instant Postum by adding a sufficient amount to two grams of Postum dissolved in 200 ml of boiling spring water to give 5, 10, 20, and 30 ppb concentrations of nonenal in the hot Postum beverage. These beverages were compared with a control of 2 grams Postum dissolved in 200 ml boiling spring water by several expert tasters.

[15] = Triangular odd cup flavor evaluation of retention on spray drying of coffee extract (Example XXI); assay type: physicochemical
Experimental: To 500 ml of distilled water is added 2.34 mg of trans-2-nonenal dissolved in 1 ml of ethanol. The aqueous mix is added to 40 pounds of coffee extract (24.5% solids) and the mixture is spray dried.
Unaromatized extract is spray dried umder equivalent conditions for use as a control. A flavor evaluation is made by dissolving 3.25 g of the aromatized coffee in eight ounces of hot water. Control cups are prepared by dissolving in each cup 3.25 g of control coffee in eight ounces of hot water and then adding thereto 10 microliters of a solution of 0.24 mg trans-2-nonenal in 5 ml of water.

SMILES: CCCCCC/C=C\COC(C)=O [cis-2-nonenyl acetate]
- Threshold Level [1]: 50 ppb
- Undesired Fatty Flavor Becoming Apparent [1]: 1500 ppb
- Recognition Level [1]: 150 ppb

SMILES: CCCCCC/C=C/C1OCCO1 [1-Octenyl-1-dioxolane, trans-1-octenyl-2-dioxolane]
- Threshold Level [1]: 0.3 ppb
- Undesired Fatty Flavor Becoming Apparent [1]: 1000 ppb
- Recognition Level [1]: 0.8 ppb

SMILES: CCCCCC/C=C/C=O [trans-2-nonenal]
- Flavor in water ([2]; 2 ppb and 20 ppb in water): regular coffee flavor characterized by experts as woody or spent grounds
- Concentration at which expert tasters find undesirable flavors ([2]; not apparent to less skilled tasters): about 16 ppm
- Evaluation ([3]; Ex. 1 Cola beverage, 2 ppb): Woody
- Evaluation ([3]; Ex. 2 Pear nectar, 1 ppb): Increased pear flavor
- Evaluation ([3]; Ex. 3 Ginger ale, 2 ppb): Woody
- Evaluation ([3]; Ex. 5 Cranberry juice, 2 ppb): Woody
- Evaluation ([3]; Ex. 7 Condensed beef broth, 2 ppb): High woody
- Evaluation ([3]; Ex. 8 Root Beer beverage, 1 ppb): Enhanced flavor
- Evaluation ([3]; Ex. 8 Root Beer beverage, 2 ppb): High woody
- Evaluation ([3]; Ex. 9 Creme Soda, 2 ppb): High woody
- Evaluation ([3]; Ex. 11 Cherry gelatin dessert, 2 ppb): Woody
- Evaluation ([3]; Ex. 12 Artificially sweetened cola beverage, 2 ppb): Woody
- Evaluation ([3]; Ex. 13 Meat broth, 1 ppb): Higher flavor impact
- Expert panel flavor evaluation [4]: slight spent grounds flavor which improved the regular brewed character of the coffee; also recorded: desirable blending or mixing of flavor and a secondary aromatic flavor similar to that produced by the addition of steam generated aroma
- Loss of aroma during freeze drying [5]: slight loss of trans-2-nonenal aroma during freeze drying
- Woody flavor of freeze dried aromatized sample relative to control ([5]; after freeze drying): about ninety
- Flavor comparison with identical sample without additive [6]: very desirable balanced flavor, having prominent winey, buttery and woody regular coffee notes
- Flavor when tasted at conventional flavor concentrations [7]: unpleasant, rancid fat flavor
- Flavor in beverages [8]: low level woody note not detectable as coffee flavor which enhances the basic flavor of the beverage
- Taste comparison with control ([9]; 1 ppb): while woodiness was not evident, there was an improved balanced cup flavor and a reduction in sourness
- Taste comparison with control ([9]; 2 ppb): improved woody regular coffee note. In addition, the typically winey and buttery notes of the coffee were better balanced and the typical sourness of the brew was masked
- Threshold Level [1]: 0.05-0.2 ppb
- Undesired Fatty Flavor Becoming Apparent [1]: 16 ppb
- Recognition Level [1]: 0.4-0.6 ppb
- Flavor comparison with control [10]: improved woody cup flavor and aroma
- Flavor comparison with control [11]: very good regular coffee flavor, the brew having improved cup flavor and lacking sourness when compared to the control
- Flavor Comments ([12]; 0.2 ppb in the brew): detectable subtle flavor
- Flavor Comments ([12]; 0.4 ppb in the brew): subtle recognition of woodiness
- Flavor Comments ([12]; 0.6 ppb in the brew): definite recognition of woodiness
- Flavor Comments ([12]; 1 ppb in the brew): woody and smoother
- Taste comparison with control ([12]; 1 ppb): did not give a detectable woody flavor, but did balance or blend the coffee flavor and masked the caramel and acid flavor of the control
- Flavor Comments ([12]; 2 ppb in the brew): woody and groundsy
- Taste comparison with control ([12]; 2 ppb): improved woody regular coffee flavor and lacked the typical caramel and acid notes of the control
- Flavor Comments ([12]; 8 ppb in the brew): high woody impact
- Flavor Comments ([12]; 16 ppb in the brew): tallowy flavor
- Flavor Comments ([12]; 30 ppb in the brew): burnt, fatty
- Flavor Comments ([12]; 40 ppb in the brew): burnt, fatty and rancid
- Flavor comparison with control [13]: improved woody flavor and good balance of cup flavor and aroma
- Effect on molasses flavor and woody flavor of Postum [14]: reduced appreciably the characteristic molasses flavor of Postum and imparted a slight woody flavor
- Effect on sweet, cereal taste of Postum [14]: significant reduction in the sweet, cereal taste of the beverage
- Taste preference ([14]; 5 ppb and 10 ppb): preferred
- Loss during spray drying [15]: no significant loss of trans-2-nonenal during spray drying
- Difference between aromatized and control cups ([15]; triangular, odd cup flavor evaluation): no difference between the cups

SMILES: CCCCCC/C=C/COC(C)=O [trans-2-nonenylacetate, Trans-2-nonenyl acetate]
- Threshold Level [1]: 100 ppb
- Undesired Fatty Flavor Becoming Apparent [1]: 1500 ppb
- Recognition Level [1]: 200 ppb

SMILES: CCCCCC/C=C/C(OC)OC [trans-2-nonene dimethyl Acetal, trans-2-nonene dimethyl acetal]
- Threshold Level [1]: 0.03 ppb
- Undesired Fatty Flavor Becoming Apparent [1]: 800 ppb
- Recognition Level [1]: 0.08 ppb

SMILES: CCCCCC/C=C/C(OCC)OCC [trans-2-nonene diethyl acetal]
- Threshold Level [1]: 0.02 ppb
- Undesired Fatty Flavor Becoming Apparent [1]: 1200 ppb
- Recognition Level [1]: 0.03 ppb
